Reference: ChEMBL document CHEMBL4483862, “Open-source discovery of chemical leads for next-generation chemoprotective antimalarials” (2018)

System: Plasmodium berghei
Assay: Luciferase/luciferin-expressing antifolate-resistant parasites were used to infect a culture of HepG2 cells that were pre-incubated with compounds. Infected hepatocytes emit light due to the luciferase reaction. Assay results are presented as the percent inhibition of light emission compared to control. […]
Assay type: functional
Details: sporozoite; for IC90: read-out: LUCIFERASE INFECTION ASSAY - IC90
[1] = read-out: LUCIFERASE INFECTION ASSAY - IC50

SMILES: N#Cc1ccc(/C=C(\c2nc3ccccc3[nH]2)c2nc3ccccc3s2)cc1
- IC50 (FFLUC_HILL_SLOPE 15, FFLUC_R_SQUARED 0.447, HEPG2TOX_HILL_SLOPE 15.3, HEPG2TOX_R_SQUARED 0.806, PBLUC_HILL_SLOPE 8.27, PBLUC_R_SQUARED 0.505, read-out: LUCIFERASE INFECTION ASSAY - IC50): 1.17 µM
- IC90: 1.53 µM

SMILES: CN(C)C(=O)c1nnsc1S(=O)(=O)c1ccc(Cl)cc1
- IC50 [1]: 8.45 µM
- IC90: > 9.95 µM

SMILES: CC(C)(Oc1ccc(C#N)cc1)C(=O)O
- IC50 [1]: > 16.1 µM
- IC90: > 16.1 µM

SMILES: CN(C)CCCCCCOc1ccc2c(c1)CCC1C2CCC2(C)C(=O)CCC12 (stereo not given)
- IC50 (PBLUC_HILL_SLOPE 2.65, PBLUC_R_SQUARED 0.355, read-out: LUCIFERASE INFECTION ASSAY - IC50): 3.69 µM
- IC90: > 8.3 µM

SMILES: Cc1nc(-c2cccc(NC(=O)c3ccc(OC(F)F)cc3)c2)[nH]c1C
- IC50 (PBLUC_HILL_SLOPE 207, PBLUC_R_SQUARED 0.671, read-out: LUCIFERASE INFECTION ASSAY - IC50): 2.66 µM
- IC90: 2.68 µM

SMILES: O=C1C=C/C(=N\Nc2ccc3ccccc3c2)c2cccnc21
- IC50 (HEPG2TOX_HILL_SLOPE 0.424, HEPG2TOX_R_SQUARED 0.848, PBLUC_HILL_SLOPE 2.17, PBLUC_R_SQUARED 0.805, read-out: LUCIFERASE INFECTION ASSAY - IC50): 0.42 µM
- IC90: 1.15 µM

SMILES: CCN1C(=O)N(Cc2ccccn2)C(=O)C12CCN(Cc1ccc3c(c1)Cc1ccccc1-3)CC2
- IC50 (HEPG2TOX_HILL_SLOPE 46.6, HEPG2TOX_R_SQUARED 0.935, PBLUC_HILL_SLOPE 4.5, PBLUC_R_SQUARED 0.25, read-out: LUCIFERASE INFECTION ASSAY - IC50): 3.98 µM
- IC90: 6.49 µM

SMILES: O=C(Nc1nc(-c2cccs2)c(C(=O)C(F)(F)F)s1)c1ccc(S(=O)(=O)N2CCCCC2)cc1
- IC50 [1]: 9.17 µM
- IC90: > 10 µM

SMILES: Cc1cc(C)c2c(C)c(C(=O)Nc3cc(S(=O)(=O)N4CCCCC4)ccc3N(C)C)sc2n1
- IC50 [1]: 6.67 µM
- IC90: > 10 µM

SMILES: O=C1/C(=C/c2ccc(F)cc2)COC/C1=C\c1ccc(F)cc1
- IC50 (HEPG2TOX_HILL_SLOPE 8.86, HEPG2TOX_R_SQUARED 0.951, read-out: LUCIFERASE INFECTION ASSAY - IC50): > 10.6 µM
- IC90: > 10.6 µM

SMILES: O=C(Nc1cccc(C(F)(F)F)c1)n1ncc(Sc2ccc(Cl)cc2)c1-c1ccc(Cl)cc1
- IC50 (HEPG2TOX_HILL_SLOPE 15.8, HEPG2TOX_R_SQUARED 0.635, PBLUC_HILL_SLOPE 5.24, PBLUC_R_SQUARED 0.621, read-out: LUCIFERASE INFECTION ASSAY - IC50): 3.11 µM
- IC90: 4.72 µM

SMILES: C1=C(c2ccccc2)CCN(Cc2cccc3cccnc23)C1
- IC50 (HEPG2TOX_HILL_SLOPE 3.29, HEPG2TOX_R_SQUARED 0.953, PBLUC_HILL_SLOPE 4.04, PBLUC_R_SQUARED 0.237, read-out: LUCIFERASE INFECTION ASSAY - IC50): 5.62 µM
- IC90: 9.68 µM

SMILES: O=C(OCc1csc(-c2ccccc2)n1)c1cc(O)c2ccccc2c1O
- IC50 (FFLUC_HILL_SLOPE 21.7, FFLUC_R_SQUARED 0.124, read-out: LUCIFERASE INFECTION ASSAY - IC50): > 10 µM
- IC90: > 10 µM

SMILES: CN(C)c1ccc(-c2cnc3cnc(-c4cnn(Cc5ccccc5)c4)cn23)cc1
- IC50 (FFLUC_HILL_SLOPE 6.21, FFLUC_R_SQUARED 0.0566, PBLUC_HILL_SLOPE 1.47, PBLUC_R_SQUARED 0.566, read-out: LUCIFERASE INFECTION ASSAY - IC50): 3.91 µM
- IC90: > 8.37 µM

SMILES: Cc1cc(-c2onc(C)c2C(=O)Sc2ccccc2)no1
- IC50 (FFLUC_HILL_SLOPE 12.1, FFLUC_R_SQUARED 0.567, PBLUC_HILL_SLOPE 1.05, PBLUC_R_SQUARED 0.41, read-out: LUCIFERASE INFECTION ASSAY - IC50): > 11 µM
- IC90: > 11 µM

SMILES: Cc1nc(=O)c2c([nH]1)NC(=O)CC2c1ccccc1C (stereo not given)
- IC50 [1]: > 12.3 µM
- IC90: > 12.3 µM

SMILES: Cc1cc(=O)[nH]n(-c2ccccc2)c1=O
- IC50 (HEPG2TOX_HILL_SLOPE 8.84, HEPG2TOX_R_SQUARED 0.75, PBLUC_HILL_SLOPE 7.32, PBLUC_R_SQUARED 0.521, read-out: LUCIFERASE INFECTION ASSAY - IC50): 6.44 µM
- IC90: 8.7 µM

SMILES: COc1ccc(C2=CS/C(=C(/C#N)c3nnc4n3CCCCC4)N2c2ccccc2)cc1
- IC50 (PBLUC_HILL_SLOPE 18.4, PBLUC_R_SQUARED 0.0899, read-out: LUCIFERASE INFECTION ASSAY - IC50): 9.78 µM
- IC90: > 10 µM

SMILES: COCC(C)NS(=O)(=O)c1c(C(C)C)cc(C(C)C)cc1C(C)C (stereo not given)
- IC50 [1]: > 9.28 µM
- IC90: > 9.28 µM

SMILES: OC1CCC(Nc2ccn3nc(-c4cccc(OCc5ccccc5)c4)cc3n2)CC1 (stereo not given)
- IC50 (PBLUC_HILL_SLOPE 2.85, PBLUC_R_SQUARED 0.208, read-out: LUCIFERASE INFECTION ASSAY - IC50): 3.37 µM
- IC90: 7.29 µM

SMILES: O=C(CCc1ccc(O)cc1)NNC(=S)Nc1ccc(Cl)c(Cl)c1
- IC50 (PBLUC_HILL_SLOPE 3.89, PBLUC_R_SQUARED 0.475, read-out: LUCIFERASE INFECTION ASSAY - IC50): 5.88 µM
- IC90: > 8.59 µM

SMILES: O=C(Nc1ccc(OC(F)(F)F)cc1)N1CCc2nc(Nc3cc(Cl)cc(Cl)c3)ncc2C1
- IC50 [1]: > 6.62 µM
- IC90: > 6.62 µM

SMILES: Cc1cc(C)c(C#N)c(SCc2nc(-c3ccsc3)no2)n1
- IC50 (FFLUC_HILL_SLOPE 0.467, FFLUC_R_SQUARED 0.935, PBLUC_HILL_SLOPE 1.22, PBLUC_R_SQUARED 0.907, read-out: LUCIFERASE INFECTION ASSAY - IC50): 0.0542 µM
- IC90: 0.328 µM

SMILES: O=C(Nc1cccc(C(F)(F)F)c1)Nc1ccccc1Sc1c(Cl)cncc1Cl
- IC50 (HEPG2TOX_HILL_SLOPE 7.44, HEPG2TOX_R_SQUARED 0.649, PBLUC_HILL_SLOPE 2.82, PBLUC_R_SQUARED 0.349, read-out: LUCIFERASE INFECTION ASSAY - IC50): 4.94 µM
- IC90: > 7.2 µM

SMILES: COc1cccc(CN2CCc3c(c(C(=O)NCCCc4ccccc4)nn3Cc3ccncc3)C2)c1
- IC50 (PBLUC_HILL_SLOPE 4.39, PBLUC_R_SQUARED 0.179, read-out: LUCIFERASE INFECTION ASSAY - IC50): 3.31 µM
- IC90: 5.47 µM

SMILES: Cn1cc(-c2cnc3cnc(-c4ccc5c(c4)OCO5)cn23)cn1
- IC50 (PBLUC_HILL_SLOPE 3.19, PBLUC_R_SQUARED 0.356, read-out: LUCIFERASE INFECTION ASSAY - IC50): 9.57 µM
- IC90: > 10.3 µM

SMILES: CC1(C(=O)Nc2ccncc2)CCN1Cc1ccc2ccccc2c1 (stereo not given)
- IC50 (HEPG2TOX_HILL_SLOPE 0.704, HEPG2TOX_R_SQUARED 0.958, PBLUC_HILL_SLOPE 1.6, PBLUC_R_SQUARED 0.488, read-out: LUCIFERASE INFECTION ASSAY - IC50): 1.8 µM
- IC90: 7.13 µM

SMILES: Cn1c(SCC(=O)NC2CCCc3ccccc32)nnc1-c1cccnc1 (stereo not given)
- IC50 (PBLUC_HILL_SLOPE 11.1, PBLUC_R_SQUARED 0.239, read-out: LUCIFERASE INFECTION ASSAY - IC50): 8.8 µM
- IC90: > 10 µM

SMILES: CCN1C/C(=C/c2cc(Cl)c(OC(C)C)c(OC)c2)C(=O)/C(=C/c2cc(Cl)c(OC(C)C)c(OC)c2)C1
- IC50 (HEPG2TOX_HILL_SLOPE 9.62, 4.07, HEPG2TOX_R_SQUARED 0.967, 0.574, PBLUC_HILL_SLOPE 16.5, 9.41, PBLUC_R_SQUARED 0.287, 0.470, read-out: LUCIFERASE INFECTION ASSAY - IC50): 2.85 µM
- IC90: 3.46 µM

SMILES: COc1ccc(Nc2nccn3c(-c4cccc(NC(C)=O)c4)cnc23)cc1
- IC90: 0.122 µM

SMILES: Cc1cc(NC(=O)c2ccco2)sc1C(=O)Nc1nnc[nH]1
- IC50 [1]: > 10 µM
- IC90: > 10 µM

SMILES: COc1cc(-c2cnc3cnc(-c4ccc(N5CCN(C)CC5)nc4)cn23)ccc1O
- IC50 (PBLUC_HILL_SLOPE 8.9, PBLUC_R_SQUARED 0.156, read-out: LUCIFERASE INFECTION ASSAY - IC50): 7.05 µM
- IC90: > 7.92 µM

SMILES: O=C(/C=C/c1ccc(-n2cncn2)c(F)c1)c1cccc(OC(F)F)c1
- IC50 (FFLUC_HILL_SLOPE 115, FFLUC_R_SQUARED 0.0591, PBLUC_HILL_SLOPE 174, PBLUC_R_SQUARED 0.383, read-out: LUCIFERASE INFECTION ASSAY - IC50): 5.39 µM
- IC90: 5.45 µM

SMILES: CCS(=O)(=O)N1CCC(C(=O)Nc2nnc(-c3cccc([N+](=O)[O-])c3)o2)(c2ccccc2)CC1
- IC50 (HEPG2TOX_HILL_SLOPE 16.8, 22.3, HEPG2TOX_R_SQUARED 0.565, 0.956, PBLUC_HILL_SLOPE 8.45, PBLUC_R_SQUARED 0.439, read-out: LUCIFERASE INFECTION ASSAY - IC50): 3.53 µM
- IC90: 4.58 µM

SMILES: O=C1S/C(=C\c2ccccc2)C(=O)N1CCn1cnnn1
- IC50 [1]: > 10 µM
- IC90: > 10 µM

SMILES: O=C1Nc2ccc([N+](=O)[O-])cc2C1=C(c1nc2ccccc2s1)c1nc2ccccc2s1
- IC50 (FFLUC_HILL_SLOPE 9.66, FFLUC_R_SQUARED 0.665, read-out: LUCIFERASE INFECTION ASSAY - IC50): > 10 µM
- IC90: > 10 µM

SMILES: O=[N+]([O-])c1cnc(Sc2nnc(O)n2-c2ccc(OCc3ccccc3)cc2)s1
- IC50 [1]: 3.81 µM
- IC90: > 7.72 µM

SMILES: OC[C@H]1O[C@@H](c2nc(-c3ccc4c(c3)CCO4)no2)[C@H](O)[C@@H]1O
- IC50 [1]: > 10.3 µM
- IC90: > 10.3 µM

SMILES: O=C(Nc1nc2ccccn2c1C(=O)NC1CCCC1)c1c(F)cccc1F
- IC50 (PBLUC_HILL_SLOPE 3.61, PBLUC_R_SQUARED 0.639, read-out: LUCIFERASE INFECTION ASSAY - IC50): 6.29 µM
- IC90: > 8.59 µM

SMILES: COc1ccc(C2CC(=O)Nc3ccc4ccccc4c32)c(OC)c1OC (stereo not given)
- IC50 [1]: > 9.08 µM
- IC90: > 9.08 µM

SMILES: Cc1ccc(-c2nc(SCc3nc(=O)c4ccc(C(=O)O)cc4[nH]3)[nH]c2-c2ccc(C)cc2)cc1
- IC50 [1]: > 10 µM
- IC90: > 10 µM

SMILES: Cc1cc(C)c(O)c(/C=N/NC(=S)NC(C)(C)C)c1
- IC50 [1]: > 11.8 µM
- IC90: > 11.8 µM

SMILES: O=C(Nc1ccccc1)c1cc(Nc2ccc(O)cc2)ncn1
- IC50 (FFLUC_HILL_SLOPE 0.974, FFLUC_R_SQUARED 0.921, PBLUC_HILL_SLOPE 1.57, PBLUC_R_SQUARED 0.726, read-out: LUCIFERASE INFECTION ASSAY - IC50): 5.2 µM
- IC90: > 10.8 µM
